Reference: patent US20150232856A1, “TELOMERASE INHIBITORS FOR USE IN THERAPY” (AGENCY FOR SCIENCE, TECHNOLOGY AND RESEARCH, priority 2012, published 2015)

Test system: TNFα induced cell death
Assay: Cell death assay, TNFα dose response (trypan blue)
Assay type: cell-based, human
Conditions: 2 μM MST-312 prior to TNFα dose response (FIG. 2G)
Experimental: G. Cell death assay: 70,000 cells were plated in 12-well plates in duplicates for each condition. Cells were treated with 2 μM MST-312 prior to TNFα dose response. The treatments were done as indicated and all cells (adherent and floating) were collected, mixed with trypan blue and counted by haemocytometer. The number of dead cells is represented as percentage of the total cells.
Cells were plated 7×10^4 per well of a 12-well plate in duplicates for 24 hrs. They were treated doxorubicin or TNFα for 24 and 48 hrs. Thereafter, all cells in the supernatant as well as adherent were collected from each well and resuspended in equal volume of 1×PBS. The cells were diluted 1:10 in PBS and equal volume of trypan blue dye was added to each sample. […] Cell death is presented as the percentage of dead cells compared to total cells for each well.

O=C(Nc1cccc(NC(=O)c2cccc(O)c2O)c1)c1cccc(O)c1O [MST-312, N,N′-1,3-Phenylenebis-[2,3-dihydroxy-benzamide]]
TNFα induced cell death: sensitized cells to TNFα induced cell death
